Tests used:
[1] = system: CA46; assay: 48-hour IC50 by MTS, CA46 Burkitt's lymphoma cells; format: cell-based, human
Experimental: (§1) Cells were grown in media supplemented with fetal bovine serum (FBS) and antibiotics (100 μg/mL penicillin and 100 U/mL streptomycin). […] Cells were incubated at 37° C. in a 5% CO2, 95% humidity atmosphere.
(§2) In a 96-well plate, compounds were pre-added as DMSO stocks (1% final) in triplicate to achieve final concentrations of 1 nM to 10 μM on a half log scale. DMSO and cell-free wells served as the live and dead control, respectively. […] IC50 values were determined from three or more independent experiments using TableCurve (San Jose, Calif.).

[2] = system: IMR90; assay: 48-hour IC50 by SRB, IMR90  lung fibroblasts; format: cell-based, human; conditions: IMR90 immortalized lung fibroblasts
Experimental: as §1
(§3) Adherent cells (HeLa, A549, BT549, and IMR90) were added into 96-well plates (5,000 cells/well for HeLa cell line; 2,000 cells/well for A549, BT549, and IMR90 cell lines) in 100 μL media and were allowed to adhere for 2-3 hours. Compounds were solubilized in DMSO as 100× stocks, added directly to the cells (100 μL final volume), and tested over a range of concentrations (1 nM to 10 μM) in triplicate (1% DMSO final) on a half-log scale. DMSO and cell-free wells served as the live and dead control, respectively. […] Briefly, media was removed from the plate, and cells were fixed by the addition of 100 μL cold 10% trichloroacetic acid in water. After incubating at 4° C. for 1 h, the plates were washed in water and allowed to dry. Sulforhordamine B was added as a 0.057% solution in 1% acetic acid (100 μL), and the plates were incubated at room temperature for 30 min, washed in 1% acetic acid, and allowed to dry. […] IC50 values were determined from three or more independent experiments using TableCurve (San Jose, Calif.).

[3] = system: Human Erythrocytes; assay: Hemolysis assay using human erythrocytes; format: cell-based; conditions: hemolysis after 2 h
Experimental: FIG. 1. Hemolytic activity of (−)-agelastatins A-F and advanced intermediates. Compounds were tested at 333 μM and hemolysis was evaluated after 2 h. DMSO and water served as the negative and positive controls for hemolysis, respectively. Error bars represent standard deviation of the mean, n=3.
To prepare the erythrocytes, 0.1 mL of human blood was centrifuged (10,000 g, 2 min). The pellet was washed three times with saline (0.9% NaCl) via gentle resuspension and centrifugation (10,000 g, 2 min). Following the final wash, the erythrocytes were resuspended in 0.4 mL red blood cell (RBC) buffer (10 mM Na2HPO4, 150 mM NaCl, 1 mM MgCl2, pH 7.4).
DMSO stocks of compounds were added to 0.5 mL tubes in singlicate (1 μL, 3.3% DMSO final). The stocks were diluted with 19 μL RBC buffer. Positive control tubes contained DMSO in water, and negative control tubes contained DMSO in RBC buffer. A suspension of washed erythrocytes (10 μL) was added to each tube, and samples were incubated at 37° C. for 2 hours. Samples were centrifuged (10,000 g, 2 min), and the supernatant was transferred to a clear, sterile 384-well plate. The absorbance of the supernatants was measured at λ=540 nm, and percent hemolysis was calculated relative to the average absorbance values measured for the controls.

[4] = system: tubulin dynamics; assay: Tubulin microscopy with HeLa cells; format: cell-based, human; conditions: 16 hours, confocal microscopy
Experimental: HeLa cells were treated with compound for 16 hours, fixed, stained, and visualized using confocal microscopy.
Round, 1.5 mm coverslips (No. 1.5) were sterilized with ultraviolet light and placed in a 12-well plate. HeLa cells (100,000 cells/well) were added and allowed to adhere for eight hours. Compounds were then added as DMSO stocks to achieve a final DMSO concentration of 1%, and the plates were returned to the incubator for 16 hours.
Following incubation, the media was removed, and the coverslips were fixed with 0.5 mL Microtubulin Stabilizing Buffer (MTSB, 80 mM PIPES, pH 6.8, 1 mM MgCl2, 5 mM EGTA, 0.5% TX-100)+0.5% glutaraldehyde for 10 minutes at room temperature, after which the fixative was removed and the sample was quenched with the addition of 0.5 mL of freshly-prepared 1 mg/mL NaBH4 in PBS. After a 5 min incubation, the solution was removed by aspiration and the coverslips were washed with PBS.
Coverslips were transferred to parafilm-lined culture dishes (cell-side up), and 40 μL of 50 μg/mL RNase A in Antibody Diluting Solution (AbDil, PBS, pH 7.4, 0.2% TX-100, 2% BSA, 0.1% NaN3) with 1:50 dilution of anti-α-tubulin-FITC antibody was added to all samples. The samples were allowed to incubate at room temperature in the dark for 2.5 hours, after which the coverslips were washed three times with PBS+0.1% TX-100. […]

[5] = system: blood cancer cells; assay: Activity against human blood cancer cell lines; format: cell-based
Experimental: Based on the surprising and exceptional potency of (−)-agelastatins A (1) and D (4) against U-937 cells relative to the other cell lines tested, five additional blood cancer cell lines were tested for their sensitivity to the agelastatin alkaloids. These cell lines spanned a variety of cancer types (CEM, acute lymphoblastic leukemia; Jurkat, acute T-cell leukemia; Daudi, Burkitt's lymphoma; HL-60, acute promyelocytic leukemia; CA46, Burkitt's lymphoma). After a 48-hour incubation, the ability of (−)-agelastatins A-F (1-6) to induce cell death was evaluated. […] The same trends in potency observed for the various agelastatins with the general cell panel (Table 3) were also observed.
In a 96-well plate, compounds were pre-added as DMSO stocks (1% final) in triplicate to achieve final concentrations of 1 nM to 10 μM on a half log scale. DMSO and cell-free wells served as the live and dead control, respectively. […] After 48 h, cell viability was assessed by adding 20 μL of a PMS/MTS solution (A. H. Cory, T. C. Owen, J. A. Barltrop, J. G. Cory, Cancer Commun., 1991, 3, 207) to each well, allowing the dye to develop at 37° C. until the live control had processed MTS, and reading the absorbance at λ=490 nm. IC50 values were determined from three or more independent experiments using TableCurve (San Jose, Calif.).

[6] = system: synchronized U-937 cells; assay: Cell cycle arrest in thymidine-synchronized U-937 cells; format: cell-based, human; conditions: 16 hours, PI, flow cytometry
Experimental: Samples were fixed, treated with an RNAse, stained with PI, and analyzed by flow cytometry. Taxol, a microtubule stabilizer, was used as a positive control. Error bars represent standard deviation of the mean, n=3. * p<0.01. PI=propidium iodide.
U-937 cells were split to 50% confluency (250,000 cells/mL) and treated with 2 mM thymidine for 10 hours. The cells were then pelleted (500 g, 3 minutes) and washed with PBS before being resuspended in thymidine-free media and allowed to recover for 13 hours. The cells were then re-blocked with 2 mM thymidine for 10 hours, and then washed with PBS as before and resuspended in media (250,000 cells/mL).
DMSO stocks of compounds were added to a 24-well plate in triplicate (0.2% DMSO final), after which 1 mL of the prepared cell suspension was added. Following a 16 h incubation, the cell suspensions were transferred to 2 mL tubes and pelleted (600 g, 3 min). The media was removed by aspiration, and the cells were fixed with 0.5 mL of ice cold 70% ethanol with vortexing. The samples were fully fixed at −20° C. for 3 hours. The samples were then pelleted (1000 g, 5 min) and the supernatant was removed via aspiration. […] Prior to reading, the samples were taken up in 150 μL of 50 μg/mL propidium iodide in PBS and transferred to flow cytometry tubes. Samples were analyzed based on whole, single cells.

[7] = system: U-937 cells; assay: Apoptosis in U-937 cells with Annexin V-FITC and propidium iodide; format: cell-based, human; conditions: 21 hours, flow cytometry
Experimental: FIG. 3. […] Analysis of phosphatidylserine exposure and propidium iodide inclusion at 21 hours in U-937 cells. Compounds were tested at indicated concentrations and STS was used as a positive control for apoptosis. Samples were analyzed by flow cytometry for the relative timing of phosphatidylserine exposure relative to PI inclusion. FITC=fluorescein isothiocyanate; PI=propidium iodide; STS=staurosporine.
DMSO stocks of compounds were added to a 24-well plate in singlicate (0.2% DMSO final). […] Following treatment, the cell suspensions were transferred to flow cytometry tubes and pelleted (500 g, 3 min). The media was removed by aspiration, and cells were resuspended in 200 μL AnnV binding buffer (10 mM HEPES, pH 7.4, 140 mM NaCl, 2.5 mM CaCl2) with 5 μg/mL PI and 1:90 dilution of AnnV. Samples were analyzed using flow cytometry.

[8] = system: Daudi; assay: 48-hour IC50 by MTS, Daudi Burkitt's lymphoma cells; format: cell-based, human
Experimental: as §1, §2

[9] = system: CEM; assay: 48-hour IC50 by MTS, CEM acute lymphoblastic leukemia cells; format: cell-based, human
Experimental: as §1, §2

[10] = system: HeLa; assay: 48-hour IC50 by SRB, HeLa cervical carcinoma cells; format: cell-based, human
Experimental: as §1, §3

SMILES: CN1C(=O)N[C@H]2[C@@H]3NC(=O)c4ccc(Br)n4[C@@H]3C[C@]21O [(−)-1, (−)-agelastatin A]
- IC50 [1]: 187 ± 71 nM
- IC50 [2]: 1110 ± 350 nM
- nonspecific hemolysis of red blood cells ([3]; compounds at 333 μM): none
- concentration without affecting normal red blood cells [3]: > 333 µM
- effect on tubulin dynamics [4]: do not affect tubulin dynamics
- sensitivity of five additional blood cancer cell lines, in words ([5]; CEM, Jurkat, Daudi, HL-60, CA46, 48-hour incubation): remarkable sensitivity
- IC50 ([5]; range over blood cancer cell lines, read-out: potency against blood cancer cells): 20 to 190 nM
- G2/M cell cycle arrest [6]: dose-dependent G2/M cell cycle arrest
- apoptosis (phosphatidylserine exposure and propidium iodide inclusion) [7]: induced dose-dependent apoptosis
- IC50 [8]: 20 ± 3 nM
- IC50 [9]: 20 ± 2 nM
- IC50 [10]: 708 ± 90 nM

From US9962383B2, “Compounds, compositions and methods of agelastatin alkaloids” (Massachusetts Institute of Technology, priority 2013, dated 2018)
